Key:
[1] = system: HeLa human cervical cancer; experiment: MTT cytotoxicity evaluation, HeLa; type: cell-based; conditions: 24 h exposure then 48 h, MTT assay
Method: (§1) A2780, a gift from Dr. Analisa DiFeo (Case Western Reserve University) were cultured in Dulbecco's modified Eagle's media (DMEM, Life Technologies), supplemented with 10% (v/v) fetal bovine serum (FBS, Atlanta Biologicals) and 1% (v/v) penicillin-streptomycin (penstrep, Life Technologies). HeLa (ATCC) were cultured in minimum essential media (MEM, Life Technologies), supplemented with 10% (v/v) FBS, 1% (v/v) penstrep, and 1% (v/v) L-glutamine (Life Technologies). MDA-MB-231, a gift from Dr. Ruth Keri (Case Western Reserve University), were cultured in Roswell Park Memorial Institute (RPMI, Life Technologies) medium supplemented with 10% (v/v) FBS, 1% (v/v) penstrep, and 1% (v/v) L-glutamine. All cells were maintained at 37°C and 5% CO2.
(§2) Confluent cells were removed with 0.05% (w/v) trypsin-EDTA (Life Technologies), seeded at either 2 × 10^3 cells/100 µL/well (MDA-MB-231 and HeLa) or 5 × 10^3 cells/100 µL/well (A2780) in 96-well plates and grown overnight at 37°C, 5% CO2. The next day, cells were washed 2 times with PBS and incubated with free DOX, PVX-DOX, or PEG-PVX-DOX corresponding to 0, 0.01, 0.05, 0.1, 0.5, 1, 5, or 10 µM (A2780, MDA-MB-231) or 0, 0.1, 0.5, 1, 5, 10, 25, or 50 µM (HeLa) DOX for 24 h, in triplicate. A PVX only control corresponded to the amount of PVX in the highest PVX-DOX sample. Following incubation, cells were washed 2 times to remove unbound DOX or particles. […]

B16F10 melanoma cells = experiment: MTT cell viability assay, B16F10; type: cell-based, murine; conditions: Mus musculus, B16-F10, 24 h exposure then 48 h
Method: B16F10 cells (ATCC) were cultured in Dulbecco's modified Eagle's media (DMEM, Life Technologies), supplemented with 10% (v/v) fetal bovine serum (FBS, Atlanta Biologicals) and 1% (v/v) penicillin-streptomycin (penstrep, Life Technologies). Cells were maintained at 37°C, 5% CO2. Confluent cells were removed with 0.05% (w/v) trypsin-EDTA (Life Technologies), seeded at 2 x 10^3 cells/100µL/well in 96-well plates, and grown overnight at 37°C, 5% CO2. The next day, cells were washed 2 times with PBS and incubated with free DOX or PVX-DOX corresponding to 0, 0.01, 0.05, 0.1, 0.5, 1, 5, or 10 µM DOX for 24 h, in triplicate. A PVX only control corresponded to the amount of PVX in the highest PVX-DOX sample. Following incubation, cells were washed 2 times to remove unbound DOX or particles. Fresh medium (100 µL) was added and cells were returned to the […] incubator for 48 h.

MDA-MB-231 tumors = experiment: MDA-MB-231 tumor-bearing athymic mouse model, intravenous treatment; type: in vivo, NCR nu/nu mice; conditions: 1 mg/kg DOX i.v. every 5 days
Method: All experiments were conducted in accordance with Case Western Reserve University's Institutional Animal Care and Use Committee. Female NCR nu/nu mice (6 weeks old) were injected subcutaneously into the right flank with 2 × 10^6 MDA-MB-231 cells suspended in 100 µL of media and Matrigel (Corning) at a 1:1 ratio. When tumors reached 100-200 mm^3, a dosage of 1.0 mg/kg body weight DOX was injected intravenously (this dosage corresponds to 1.0 - 2.0 mg PVX depending on batches). Groups of 4 animals each were treated with PEG-PVX-DOX, free DOX, or PBS. The dosage was normalized to the DOX content. Treatments were performed every 5 days, and a total of 5 treatments was given.
Tumors were measured daily and total volume was calculated using the formula: v = (l × w^2)/2. Mice were euthanized following 25 days of treatment.

[2] = system: A2780 human ovarian cancer; experiment: MTT cytotoxicity evaluation, A2780; type: cell-based
Method: as §1, §2

A2780 cells = experiment: tracking of free DOX and PVX-DOX in cells (fluorescence microscopy); type: cell-based, human; conditions: 1.5 µM DOX, at 48 h
Method: A2780 cells were grown to confluency and removed with 0.05% (w/v) trypsin-EDTA. Cells were seeded at 1 × 10^4 cells/500 µL/well on coverslips in untreated 24-well plates and grown overnight at 37°C, 5% CO2. The next day, cells were washed 3 times and incubated with free DOX or PVX-DOX (1.5 µM DOX) for 2, 4, 12, 24, or 48 h. Following incubation, cells were washed 3 times and fixed in DPBS (Corning) containing 5% (v/v) paraformaldehyde (Electron Microscopy Sciences) and 0.3% (v/v) glutaraldehyde (Polysciences) for 10 min at room temperature. Coverslips were mounted using Fluoroshield (Sigma). Slides were imaged on a Zeiss Axio Observer Z1 motorized FL inverted microscope. Fluorescence intensity was analysed as follows using ImageJ 1.47d. All images were identically processed prior to fluorescence intensity measurement. Nuclei were selected and analyzed for fluorescence intensity using the measure feature of ImageJ. For each sample, a minimum of 3 images was analyzed and at least 4 cells were analyzed per image.

[3] = system: MDA-MB-231 human breast cancer; experiment: MTT cytotoxicity evaluation, MDA-MB-231; type: cell-based; conditions: MDA-MB-231, 24 h exposure then 48 h, MTT assay
Method: as §1, §2

## COc1cccc2c1C(=O)c1c(O)c3c(c(O)c1C2=O)C[C@@](O)(C(=O)CO)C[C@@H]3O[C@H]1C[C@H](N)[C@H](O)[C@H](C)O1 [DOX, doxorubicin]
[1]
  IC50: 1600 nM
B16F10 melanoma cells
  IC50: 280 nM
MDA-MB-231 tumors; p<0.05
  day post first treatment from which differences to PBS were statistically significant: > 22 days
MDA-MB-231 tumors; at the end of the treatment, 5 injections
  tumor volumes smaller than the PBS control: 2.1 times
[2]; A2780, MTT assay
  cell killing effectiveness relative to PVX-DOX: 4 times
[2]; Homo sapiens, A2780, 24 h exposure then 48 h, MTT assay
  IC50: 220 nM
A2780 cells
  drug-induced apoptosis: apparent
[3]
  IC50: 130 nM

— patent EP3592343B1, “CANCER IMMUNOTHERAPY USING VIRUS PARTICLES” (Case Western Reserve University, priority 2017, dated 2018)
